Laboratory results as given in article PMC10574351, “First-Row Transition Metal Complexes Incorporating the 2-(2′-pyridyl)quinoxaline Ligand (pqx), as Potent Inflammatory Mediators: Cytotoxic Properties and Biological Activities against the Platelet-Activating Factor (PAF) and Thrombin” (Molecules, 2023).
Entries after “also recorded” stand apart in the source; their conditions may differ. Like-named read-outs stand apart in the source and are kept apart here.

What was measured:
[1] = test system: PAF-induced aggregation in washed rabbit platelets (WRPs); conditions: cited from earlier work
[2] = test system: thrombin-induced aggregation in washed rabbit platelets (WRPs); experiment: Inhibition of thrombin-induced aggregation in washed rabbit platelets; type: cell-based; conditions: washed rabbit platelets, mean ± SD; for IC50: read-out: IC50 (μM) towards Thrombin in WRPs
Procedure: (§1) The biological experiments of PAF-induced platelet aggregation as well as the evaluation of the inhibitory effect of its synthetic compounds were performed according to thoroughly described protocols. The inhibitory effect of the starting materials (pqx = 2-(2′-pyridyl)quinoxaline, CrCl3 × 3H2O, MnCl2 × 4H2O, FeCl2 × 4H2O, CoCl2 × 6H2O, NiCl2 × 6H2O, CuCl2 × 2H2O, ZnCl2) and of the coordination compounds 1–7, towards PAF and thrombin related biological activities (aggregation experiments) in washed rabbit platelets (WRPs) was carried out according to previously described protocols. Briefly, in order to obtain the washed rabbit platelets (WRPs), platelet-rich plasma was washed on Ficoll–Paque cushions and adjusted to […] platelets/mL of Tyrode’s buffer, pH 7.2. The dilution of PAF was prepared using pyrogen-free 0.15 M NaCl containing 2.5 mg/mL of crystallized bovine serum albumin, required for dispersion of PAF. The compounds under investigation were firstly dissolved in the appropriate solvent that is: DMSO for pqx (0.010 M), H2O for CrCl3 × 3H2O (0.016 M), H2O for MnCl2 × 4H2O (0.004 M), DMSO-EtOH (4/1, v/v)) for FeCl2 × 4H2O (0.014 M), H2O for CoCl2 × 6H2O (0.010 M), H2O for NiCl2 × 6H2O (0.010 M), H2O for CuCl2 × 2H2O (0.008 M), H2O for ZnCl2 (0.013 M), DMSO for 1 (0.017 M), DMSO for 2 (0.010 M0, DMSO for 3 (0.004 M), DMSO for 4 (0.002 M), DMSO for 5 (0.003 M), DMSO-EtOH-H2O (25/1/1, v/v)) for 6 (0.006 M), DMSO for 7 (0.002 M) and aliquots of these solutions were then added in solutions (2.5 mg BSA/mL) of saline.
The experiment on the inhibitory effect of each compound of interest against the washed rabbit platelets (WRPs) aggregation was carried out as per the already described method. The platelets were from male New Zealand white rabbits (about 20), individually housed in stainless steel cages in an air-conditioned room (19 ± 1 °C, 55 ± 5% humidity on a 12/12 h artificial light/dark cycle). Blood samples were drawn from the main ear artery. Microliters of PAF in a final concentration of about 10^–10 M were added to the cuvette of the aggregometer, and the height of the platelet aggregation was monitored. The platelet aggregation induced by PAF, or thrombin was measured before (considered as 0% inhibition) and after the addition of various concentrations of the examined sample, creating a linear curve of percentage inhibition (ranging from 0 to 100%) versus different concentrations of the sample. From this curve, the concentration of the sample that inhibited 50% PAF-induced aggregation was calculated, and this value was defined as IC50 (Inhibitory concentration for 50% Inhibition). Dithiothreitol-insensitive PAF choline phosphotransferase, lyso-PAF:acetyl-CoA acetyltransferase and PAF-acetylhydrolase activity assays were performed on the homogenates of rabbit leukocytes while the activity of lipoprotein-associated phospholipase A2 was assessed on plasma as previously described. The experiments were performed in a model 400 vs. aggregometer of Chrono-Log (Havertown, PA, USA) coupled to a Chrono-Log recorder at 37 °C with constant stirring at 1200 rpm. The separation of platelets was performed with centrifugations in a 3L-R Heraeus Labofuge (Hvanau, Germany), a 400R Heraeus Labofuge and an RC-5B Sorvall (Newtown, CT, USA) refrigerated super speed centrifuge. Bovine serum albumin (BSA), PAF and analytical solvents for the biological assays were purchased from Sigma. Standard active thrombin was purchased from Sigma, St. Lewis, MO, USA. The measurements were performed in duplicates for each sample concentration in three different WRP preparations, in order to ensure reproducibility. All experiments were also followed by appropriate control tests of the solvent used (saline solution of BSA, DMSO aliquots in a saline solution of BSA-2.5 mg BSA/mL saline- or just in saline), in WRPs. […]

[3] = test system: PAF-induced aggregation in washed rabbit platelets (WRPs); experiment: Inhibition of PAF-induced aggregation in washed rabbit platelets; type: cell-based; conditions: washed rabbit platelets; mean ± SD; read-out: IC50 (μM) towards PAF in WRPs
Procedure: as §1, with “The inhibitory effect of the starting materials (pqx = 2-(2′-pyridyl)quinoxaline, CrCl3 × 3H2O, MnCl2 × 4H2O, FeCl2 × 4H2O, CoCl2 × 6H2O, NiCl2 × 6H2O, CuCl2 × 2H2O, ZnCl2) and of the coordination compounds 1–7, towards PAF and thrombin related biological activities (aggregation experiments) in washed rabbit platelets (WRPs) was carried out according to previously described protocols.” left out
The experiment on the inhibitory effect of each compound of interest against the washed rabbit platelets (WRPs) aggregation was carried out as per the already described method. The platelets were from male New Zealand white rabbits (about 20), individually housed in stainless steel cages in an air-conditioned room (19 ± 1 °C, 55 ± 5% humidity on a 12/12 h artificial light/dark cycle). Blood samples were drawn from the main ear artery. Microliters of PAF in a final concentration of about 10^–10 M were added to the cuvette of the aggregometer, and the height of the platelet aggregation was monitored. The platelet aggregation induced by PAF, or thrombin was measured before (considered as 0% inhibition) and after the addition of various concentrations of the examined sample, creating a linear curve of percentage inhibition (ranging from 0 to 100%) versus different concentrations of the sample. From this curve, the concentration of the sample that inhibited 50% PAF-induced aggregation was calculated, and this value was defined as IC50 (Inhibitory concentration for 50% Inhibition). Dithiothreitol-insensitive PAF choline phosphotransferase, lyso-PAF:acetyl-CoA acetyltransferase and PAF-acetylhydrolase activity assays were performed on the homogenates of rabbit leukocytes while the activity of lipoprotein-associated phospholipase A2 was assessed on plasma as previously described. The experiments were performed in a model 400 vs. aggregometer of Chrono-Log (Havertown, PA, USA) coupled to a Chrono-Log recorder at 37 °C with constant stirring at 1200 rpm. The separation of platelets was performed with centrifugations in a 3L-R Heraeus Labofuge (Hvanau, Germany), a 400R Heraeus Labofuge and an RC-5B Sorvall (Newtown, CT, USA) refrigerated super speed centrifuge. Bovine serum albumin (BSA), PAF and analytical solvents for the biological assays were purchased from Sigma. […] The measurements were performed in duplicates for each sample concentration in three different WRP preparations, in order to ensure reproducibility. All experiments were also followed by appropriate control tests of the solvent used (saline solution of BSA, DMSO aliquots in a saline solution of BSA-2.5 mg BSA/mL saline- or just in saline), in WRPs. In the aggregometer cuvette (250 to 500 μL) the overall amount of added DMSO, contained in the solution of the sample under study, is not higher than 2–3 μL. All results were expressed as mean ± standard deviation (SD). The t-test was employed to assess differences among the IC50 values of each metal complex against either the PAF- or thrombin-induced aggregation. Differences were statistically significant when the statistical p-value was smaller than 0.05.

[4] = test system: HEK293T (human embryonic kidney cells); experiment: MTT cell viability assay, HEK293T; type: cell-based; conditions: 48 h exposure, mean ± SD
Procedure: (§2) In this report, cell viability tests were conducted in HEK293T and HeLa cancer cells by means of the colorimetric 3-(4,5-dimethylthiazol-2-yl)-2,5-diphenyl tetrazolium bromide (MTT) assay after exposure for 48 h. A HeLa cancer cell line was selected since it is widely used in cytotoxicity studies. For all complexes, a 10 mM stock solution in DMSO (H2O for cisplatin) was prepared and diluted appropriately to reach the final concentration reported in the Materials and Methods. The non-cancerous HEK293T cell line was used for comparison. The IC50 values of the first-row metal complexes, the pqx ligand and cisplatin, presented herein were calculated using a dose-response model, which was obtained from sigmoidal fitting of dose-response curves.
(§3) The HEK293T cell line (immortalized human embryonic kidney cells) was obtained from the Biomedical Research Foundation Academy of Athens (BRFAA), Athens, Greece and the HeLa cell line (cervical cancer cells) was obtained from the National Centre For Scientific Research Demokritos (NCSR Demokritos), Athens, Greece.
(§4) Pqx metal complexes were diluted in stock solutions of 10 mM in dimethyl sulfoxide (DMSO). A similar concentration of cisplatin dissolved in H2O was used. HEK293T and HeLa cells were cultured in Dulbecco’s modified Eagle’s medium (DMEM) with high glucose (Biosera, Nuaille, France) supplemented with 10% fetal bovine serum at 37 °C and 5% CO2. Cells were seeded in sterile tissue culture 96-well plates (SPL Life Science, Pochon, Republic of Korea) at a density of 3000 cells per well. After 24 h, the medium was removed and replaced with fresh media containing various concentrations (0.01 μΜ, 0.1 μΜ, 1 μΜ, 10 μΜ, 25 μΜ, 40 μΜ, 55 μΜ, 70 μΜ, 85 μΜ and 100 μΜ) of the compounds to be tested and was further incubated for 48 h at 37 °C. Dimethyl sulfoxide (DMSO) was used as a vehicle at ≤1%. To measure cytotoxicity, a culture medium containing the compounds (or DMSO) was removed, and 100 μL of 0.5 mg/mL MTT reagent (Applichem, Darmstadt, Germany) diluted in DMEM was added to the cells for 3 h at 37 °C. After 3 h incubation in identical conditions, MTT was removed and 200 μL of DMSO was added. Absorbance values of formazan were measured at 540 nm using a BioTek Synergy H1 microplate reader (Agilent, Santa Clara, CA, USA). All compounds were tested in triplicate. The results were statistically analyzed using the nonlinear regression by GraphPad PRISM (Version 9).

[5] = test system: HeLa cells (cervical cancer cells); experiment: MTT cell viability assay, HeLa; type: cell-based, human; conditions: 48 h exposure, mean ± SD
Procedure: as §2, §3, §4

[6] = test system: thrombin-induced aggregation in washed rabbit platelets (WRPs); conditions: cited from earlier work
[7] = known PAF antagonists quoted for comparison, read-out: IC50 against the PAF-induced aggregation in WRPs
[8] = earlier pqx complexes, ref [17],[25], read-out: IC50 against the PAF-induced aggregation

In the case of `C[C@@H]1C(=O)O[C@H]2C[C@@]34[C@H]5C[C@@H](C(C)(C)C)[C@]36[C@@H](OC(=O)[C@@H]6O)O[C@@]4(C(=O)O5)[C@]21O` [BN 52020], the IC50 [1, 7] is given as 3.6 µM.

For `CC1C(=O)OC2C(O)C34C5CC(C(C)(C)C)C36C(OC(=O)C6O)OC4(C(=O)O5)C12O` (stereo not shown) [BN 52021], the IC50 [1, 7] is listed as 9.7 µM.

For `O.O.O.O.O.O.[Cl-].[Cl-].[Co+2]` [CoCl2 × 6H2O], the “IC50 (μM) towards Thrombin in WRPs” value [2] is given as “no inhibition” and the “IC50 (μM) towards PAF in WRPs” value ([1]; washed rabbit platelets, ref [60]) is given as “negligible effects; also recorded: no inhibition ^1”.

Work on `[Cl][Cr]([Cl])[Cl]` [CrCl3 × 6H2O, reference compound] yielded an IC50 [2] of 611 ± 67 µM and an IC50 [3] of 537 ± 59 µM.

Work on `[Cl][Cu][Cl]` [CuCl2 × 2H2O, reference compound] yielded an IC50 [2] of 3.23 ± 0.39 µM and an IC50 [3] of 22 ± 3 µM.

`[Cl][Fe][Cl]` [FeCl2 × 4H2O, reference compound] showed an IC50 [2] of 13.8 ± 1.93 µM and an IC50 [3] of 261 ± 37 µM.

For `[Cl][Mn][Cl]` [MnCl2 × 4H2O, reference compound], the IC50 [2] was 466 ± 47 µM and the IC50 [3] was 302 ± 30 µM.

In the case of `[Cl][Ni][Cl]` [NiCl2 × 6H2O, reference compound], the IC50 [2] is reported as 4.9 ± 0.44 µM and the IC50 [3] is reported as 30 ± 2.7 µM.

With `[Cl-].[Cl-].[Zn+2]` [ZnCl2, reference compound] the IC50 [2] was 41.4 ± 3.7 µM and the IC50 [3] was 30 ± 3 µM.

For `N.N.[Cl][Pt][Cl]` [cisplatin, reference compound], the IC50 [4] is given as 4.44 ± 1.29 µM, the IC50 [5] is given as 12.8 ± 1.48 µM and the IC50 ([1]; ref [25], read-out: IC50 against PAF) is given as 0.55 µM.

For `Cc1cncc(CN2CCC(=C3c4ccc(Cl)cc4CCc4cccnc43)CC2)c1` [rupatadine], the IC50 [1, 7] is listed as 0.25 µM.

For [Rh(cod)(pqx)]Cl, the IC50 [1, 8] is given as 0.015 µM.

For [Ru(dcbpyH2)2 (pqx))](NO3)2, the “activity against thrombin” value ([6]; known Ru(II)-pqx complex, ref [17]) is given as “inactive” and the IC50 [1, 8] is given as 0.18 µM.

For cis-[Ru(bpy)2(dcbpyH2)](PF6)2, the IC50 ([6]; Ru(II) thrombin inhibitors, ref [30], read-out: IC50 against thrombin) is listed as 4.5 µM.

In the case of mer-[Rh(pqx)Cl3(MeOH)], the IC50 [1, 8] is given as 0.125 µM.
